In ChEMBL document CHEMBL1201862, “PubChem BioAssay data set” (2004):
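Compound exposure: 48 hours, 5 concentrations, 96-well plates. GI50 marks 50% less growth.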 The source made the active and inactive calls. Cut-off read from the data, not from the text of the source: active = GI50 up to about 1.1 µM and inactive = higher.

Columns and labels:
Test in all cases: NCI anticancer screen, dose series, 48 h
786-0 = test system: 786-0
A498 = test system: A498
A549 = test system: A549
ACHN = test system: ACHN
BT-549 = test system: BT-549
CAKI-1 = test system: CAKI-1
COLO 205 = test system: COLO 205
DU-145 = test system: DU-145
EKVX = test system: EKVX
HCC 2998 = test system: HCC 2998
HCT-116 = test system: HCT-116
HCT-15 = test system: HCT-15
HOP-62 = test system: HOP-62
HOP-92 = test system: HOP-92
HT-29 = test system: HT-29
Hs-578T = test system: Hs-578T
IGROV-1 = test system: IGROV-1
K562 = test system: K562
KM12 = test system: KM12
LOX IMVI = test system: LOX IMVI
M14 = test system: M14
MCF7 = test system: MCF7
MDA-MB-231 = test system: MDA-MB-231
MDA-MB-435 = test system: MDA-MB-435
MDA-N = test system: MDA-N
MOLT-4 = test system: MOLT-4
Malme-3M = test system: Malme-3M
NCI-H226 = test system: NCI-H226
NCI-H23 = test system: NCI-H23
NCI-H460 = test system: NCI-H460
NCI-H522 = test system: NCI-H522
NCI/ADR-RES = test system: NCI/ADR-RES
OVCAR-3 = test system: OVCAR-3
OVCAR-4 = test system: OVCAR-4
OVCAR-5 = test system: OVCAR-5
OVCAR-8 = test system: OVCAR-8
PC-3 = test system: PC-3
RPMI-8226 = test system: RPMI-8226
RXF 393 = test system: RXF 393
SF-268 = test system: SF-268
SF-295 = test system: SF-295
SF-539 = test system: SF-539
SK-MEL-28 = test system: SK-MEL-28
SK-MEL-2 = test system: SK-MEL-2
SK-MEL-5 = test system: SK-MEL-5
SK-OV-3 = test system: SK-OV-3
SN12C = test system: SN12C
SNB-19 = test system: SNB-19
SNB-75 = test system: SNB-75
SR = test system: SR
SW-620 = test system: SW-620
T47D = test system: T47D
TK-10 = test system: TK-10
U-251 = test system: U-251
UACC-257 = test system: UACC-257
UACC-62 = test system: UACC-62
UO-31 = test system: UO-31

O=C1C=C/C(=N/c2cccc3c(/N=C4/C=CC(=O)O4)cccc23)O1
GI50 (786-0): 19.4 µM (inactive) | GI50 (A498): > 100 µM (inactive) | GI50 (A549): > 100 µM (inactive) | GI50 (ACHN): 29 µM (inactive) | GI50 (BT-549): 86.3 µM (inactive) | GI50 (CAKI-1): 18.9 µM (inactive) | GI50 (COLO 205): 20.2 µM (inactive) | GI50 (DU-145): > 100 µM (inactive) | GI50 (EKVX): 16.8 µM (inactive) | GI50 (HCC 2998): > 100 µM (inactive) | GI50 (HCT-116): 24.8 µM (inactive) | GI50 (HCT-15): 37.3 µM | GI50 (HOP-62): > 100 µM (inactive) | GI50 (HOP-92): 42.7 µM (inactive) | GI50 (HT-29): 41.8 µM (inactive) | GI50 (Hs-578T): > 100 µM (inactive) | GI50 (IGROV-1): 58.5 µM (inactive) | GI50 (K562): 21.2 µM (inactive) | GI50 (KM12): > 100 µM (inactive) | GI50 (LOX IMVI): 27.8 µM (inactive) | GI50 (M14): 29.2 µM (inactive) | GI50 (MCF7): 33.3 µM (inactive) | GI50 (MDA-MB-231): 69.5 µM (inactive) | GI50 (MDA-MB-435): 44.5 µM (inactive) | GI50 (MDA-N): 27.3 µM (inactive) | GI50 (MOLT-4): 3.72 µM (inactive) | GI50 (Malme-3M): 22.2 µM (inactive) | GI50 (NCI-H226): > 100 µM (inactive) | GI50 (NCI-H23): 50.4 µM (inactive) | GI50 (NCI-H460): > 100 µM (inactive) | GI50 (NCI-H522): 18.7 µM (inactive) | GI50 (NCI/ADR-RES): 95.7 µM (inactive) | GI50 (OVCAR-3): 51.6 µM (inactive) | GI50 (OVCAR-4): 39.4 µM (inactive) | GI50 (OVCAR-5): 54.8 µM (inactive) | GI50 (OVCAR-8): 20 µM (inactive) | GI50 (PC-3): 48 µM (inactive) | GI50 (RPMI-8226): 23.1 µM (inactive) | GI50 (RXF 393): 20.7 µM (inactive) | GI50 (SF-268): 52.6 µM (inactive) | GI50 (SF-295): > 100 µM (inactive) | GI50 (SF-539): 19.1 µM (inactive) | GI50 (SK-MEL-28): 28.3 µM (inactive) | GI50 (SK-MEL-2): > 100 µM (inactive) | GI50 (SK-MEL-5): > 100 µM (inactive) | GI50 (SK-OV-3): > 100 µM (inactive) | GI50 (SN12C): 29.9 µM (inactive) | GI50 (SNB-19): > 100 µM (inactive) | GI50 (SNB-75): > 100 µM (inactive) | GI50 (SR): 19.8 µM (inactive) | GI50 (SW-620): 16.4 µM (inactive) | GI50 (T47D): 33.7 µM (inactive) | GI50 (TK-10): 17.7 µM (inactive) | GI50 (U-251): > 100 µM (inactive) | GI50 (UACC-257): 22.3 µM (inactive) | GI50 (UACC-62): 34.4 µM (inactive) | GI50 (UO-31): > 100 µM (inactive)
